Results reported in PubChem BioAssay AID1194 (EPA DSSTox, 2008).
Activity calls are given as the source filed them.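 How the source made its calls: active means chemicals rated mutagenic or weakly mutagenic in the Salmonella bacterial test by one literature review, or positive overall by another; inconclusive means no clear call, values can overlap the other calls; inactive means the rest.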

Test system: Salmonella typhimurium Ames mutagenicity, literature compiled
Test: DSSTox (CPDBAS) Carcinogenic Potency Database Salmonella Mutagenicity
Summary of the method: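 Calls derive from published evaluations rather than new testing; overall "positive" in EPA Gene-Tox, or "mutagenic"/"weakly mutagenic" per Zeiger, counts as active.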

SMILES	outcome
C[C@H]1CCCC(=O)CCC/C=C/c2cc(O)cc(O)c2C(=O)O1	inactive; active
O=C1O[C@H]([C@@H](O)CO)C(O)=C1O	inactive
CC(O)CN(CC(C)O)CC(C)O (stereo not drawn)	inactive; active
CC(C)(C)c1cc(O)ccc1O	inactive
ClC(Cl)Cl	inactive
CN(C)c1ccc(Cc2ccc(N(C)C)cc2)cc1	active
O=C(O)/C=C/c1ccc(O)c(O)c1	inactive
O=[N+]([O-])c1ccc(O)c([N+](=O)[O-])c1	inactive
NNC(=O)c1ccncc1	active; inactive
Nc1ccccc1C(=O)O	inactive
CC(=O)Nc1cccc2c1-c1ccccc1C2	active; inactive
CC1(C)S[C@@H]2[C@H](NC(=O)COc3ccccc3)C(=O)N2[C@H]1C(=O)O	inactive; active
COc1ccc(N)c(C)c1	active; inactive
CCN(CC)C(=S)S	inactive
CC(C)(c1ccc(O)cc1)c1ccc(O)cc1	inactive
Nc1cc(Cl)c(N)c(Cl)c1	active
COc1ccc(N)cc1N	active; inactive
Oc1ccc2ccccc2c1N=Nc1ccccc1	active; inactive
Cc1ccc(NC(N)=O)cc1	inactive; active
ClCc1ccccn1	active
C=CC(O)c1ccc(OC)cc1 (stereo not drawn)	inactive; active
CC1=NN(c2ccccc2)C(=O)C1	inactive
FC(F)(F)CCl	inactive

SMILES	outcome
Clc1ccc2c(c1)Oc1ccc(Cl)cc1O2	inactive
CC(C)CCC[C@@H](C)[C@H]1CC[C@H]2[C@@H]3CC=C4C[C@@H](OC(=O)Cc5ccc(N(CCCl)CCCl)cc5)CC[C@]4(C)[C@H]3CC[C@]12C	inactive; active
Cc1cccn2c1nc1ccc(N)nc12	active
Cc1c(N)nc(C)c2c1[nH]c1ccccc12	active
Nc1cc([N+](=O)[O-])ccc1O	active
NC(=O)N/N=C/c1ccc([N+](=O)[O-])o1	active
O=NN1CC=CCC1	active
CC(=O)NNc1ccccc1	active
[Na+]	inactive
NC(=O)Cc1cccc2ccccc12	active
CCCCCCCC(=O)OCC(COC(=O)CCCCCCC)OC(=O)CCCCCCC	active; inactive
c1ccc2n[nH]nc2c1	active; inactive
Cc1ncc([N+](=O)[O-])n1C	active
CCOC(=O)CC(SP(=O)(OC)OC)C(=O)OCC (stereo not drawn)	inactive
O=P1(N(CCCl)CCCl)NCCCO1 (stereo not drawn)	active
CCCCCCCCCCCCN(C)N=O	active
O=C(O)C(Cl)(Cl)Cl	inactive
O=NN1CCCC1	active
NS(=O)(=O)c1cc2c(cc1Cl)NCNS2(=O)=O	inactive; active
CN(C)c1ccccc1	inactive
Cc1cc(=O)n(-c2ccccc2)n1C	inactive; active
[O-]/[N+](=N\O)c1ccccc1	active; inactive
CN(N=O)c1ccccn1	active; inactive

SMILES	outcome
Nc1c(Cl)cc(Cl)cc1Cl	inactive; active
CN(C)C(=O)Cl	active
OCCN(CCO)c1nc(-c2cccs2)nc2ccccc12	inactive
ClC1C2(Cl)C3C4C5OC5C5C4C1(Cl)C(Cl)(C53)C2(Cl)Cl (stereo not drawn)	active
c1ccc2cc(Nc3ccc(Nc4ccc5ccccc5c4)cc3)ccc2c1	active
CC[C@H]1OC(=O)[C@H](C)[C@@H](O[C@H]2C[C@@](C)(OC)[C@@H](O)[C@H](C)O2)[C@H](C)[C@@H](O[C@@H]2O[C@H](C)C[C@H](N(C)C)[C@H]2O)[C@](C)(O)C[C@@H](C)C(=O)[C@H](C)[C@@H](O)[C@]1(C)O	inactive
OCc1ccccc1	inactive
O=[N+]([O-])c1ccc(NCCO)c(OCCO)c1	active
O=[N+]([O-])c1ccc2c3c(cccc13)CC2	active
Oc1ccccc1O	inactive; active
COc1ccc(N)cc1	active; inactive
CC(=O)Nc1ccc(N=Nc2cc(C)ccc2O)cc1	active
CCOC(=O)N(CC)N=O	active; inactive
OCC(CO)(CBr)CBr	active
O=C(O)CCCc1ccc(N(CCCl)CCCl)cc1	active; inactive
Nc1ccc([N+](=O)[O-])cc1N	active
C=C(C)[C@H]1CC=C(C)C(=O)C1	inactive; active
O=P(OCCCl)(OCCCl)OCCCl	inactive
C=CCOC(=O)CC(C)C	inactive; active
Nc1cc(S(=O)(=O)O)cc2cc(S(=O)(=O)O)c(N=Nc3ccc(-c4ccc(N=Nc5c(S(=O)(=O)O)cc6cc(S(=O)(=O)O)cc(N)c6c5O)cc4)cc3)c(O)c12	active
O=C(O)COc1cc(Cl)c(Cl)cc1Cl	inactive; active
CCC(O)OC(O)CC (stereo not drawn)	inactive; active
